From ChEMBL document CHEMBL3301546, “MMV Malaria Box yeast growth screening”

How the values were obtained:
Type in all cases: functional
Saccharomyces cerevisiae [1] = experiment: MMV: Growth assays were conducted using the prototrophic S. cerevisiae strain JHY222. Each MMV compound (0.1 mM) was tested in minimal media containing ethanol and glycerol as carbon sources (Yeast Nitrogen Base, Ethanol, Glycerol; YNBEG). The growth rate in the presence of each MMV compound was calculated as follows: (i) the first 10 OD readings were averaged and subtracted from all OD readings of the corresponding curve to set the baseline of the growth curve to zero, and (ii) the area under the curve (AUC) was then calculated as the sum of all OD readings. […] A relative growth value was calculated as follows: AUC(DRUG) - AUC(DMSO)/AUC(DMSO); where AUC(DMSO) represents growth measured in a DMSO control well that was on the same microtiter plate of the drug-treated culture.
Saccharomyces cerevisiae [2] = experiment: (§1) MMV: Growth assays were conducted using the prototrophic S. cerevisiae strain JHY222. Each MMV compound (0.1 mM) was tested in minimal media containing dextrose as a carbon source (Yeast Nitrogen Base, Dextrose; YNBD). The growth rate in the presence of each MMV compound was calculated as follows: (i) the first 10 OD readings were averaged and subtracted from all OD readings of the corresponding curve to set the baseline of the growth curve to zero, and (ii) the area under the curve (AUC) was then calculated as the sum of all OD readings. […] A relative growth value was calculated as follows: AUC(DRUG) - AUC(DMSO)/AUC(DMSO); where AUC(DMSO) represents growth measured in a DMSO control well that was on the same microtiter plate of the drug-treated culture.
Saccharomyces cerevisiae [3] = experiment: as §1, with “rich” for “minimal”, “Extract, Peptone,” for “Nitrogen Base,”, “YPD).” for “YNBD).”

Row | SMILES | Relative Growth (Saccharomyces cerevisiae [1]) | Relative Growth (Saccharomyces cerevisiae [2]) | Relative Growth (Saccharomyces cerevisiae [3])
1 | Cc1ccc(-c2nc3ccccc3o2)cc1NCc1cc(Cc2ccccc2)ccc1O | -0.1416 | 0.0201 | -0.0705
2 | Oc1c2c(nc3cc(-c4ccccc4)nn13)CCCC2 | -0.0208 | 0.0363 | -0.4545
3 | COc1ccc(-n2ccnc2SCC(=O)Nc2cc(C)ccc2C)c(OC)c1 | 0.0762 | -0.0529 | -0.0469
4 | CC(C)c1ccc(CNCC(O)c2ccccc2)cc1.Cl (stereo not drawn) | 0.0017 | 0.1145 | -0.02
5 | Clc1ccc2[nH]c3c(NCCCN4CCOCC4)ncnc3c2c1 | -0.0516 | -0.0328 | 0.0234
6 | COc1ccc(CN2CCN(Cc3ccccc3)CC2)c(O)c1 | 0.0718 | 0.0478 | -0.0119
7 | CCOc1ccc2nc(C)cc(Nc3ccc(N(C)C)cc3)c2c1.Cl | -0.2064 | -0.1579 | -0.2818
8 | Cc1nc2ccccc2c(O)c1CC=C(Cl)Cl | -1.0138 | -0.0687 | -0.1226
9 | O=C(Nc1ccc(Br)cc1)Nc1cccc(Cl)c1 | -0.1301 | -0.1739 | -1.0018
10 | COc1ccc(C)c2sc(N(Cc3cccnc3)C(=O)c3ccc(C#N)cc3)nc12 | 0.0255 | -0.0341 | -0.0087
11 | C=C(C)CCC(C)N1CCC(N2CCC(C(=O)NCCc3ccccc3)CC2)CC1 (stereo not drawn) | -0.0755 | 0.0261 | -0.0567
12 | COc1ccc(C(=O)Nc2ccc(Cl)cc2C(=O)Nc2ccncc2)cc1 | 0.1271 | -0.1015 | -0.2989
13 | c1ccc2c(NCCc3c[nH]c4ccccc34)c3ccccc3nc2c1 | -0.0957 | -0.0449 | -0.7261
14 | CN(C)CCCNc1c2ccccc2nc2ccccc12 | 0.0887 | -0.0065 | 0.0036
15 | C=CCc1c(C)nc2ccccc2c1O | 0.1025 | -0.0056 | -0.0062
16 | O=C1c2ccccc2C2=Nc3ccccc3SC(c3cccc(F)c3)C12 (stereo not drawn) | -0.2808 | -0.0716 | 0.0574
17 | Cc1cccc(Nc2nc(N)c3ccccc3n2)c1.Cl | 0.3952 | 0.1313 | -0.0941
18 | CCCCCCc1cc2cc(-c3csc(C=Cc4ccccc4)n3)c(=O)oc2cc1O | -0.0651 | -0.058 | -0.0646
19 | Cc1c(C)n(Cc2ccc(F)cc2)c2ccc(C(=O)NCc3ccco3)cc12 | -1.0264 | -0.1235 | -0.5565
20 | COc1cccc(Cn2c(Oc3ccccc3)nc3c2c(=O)n(C)c(=O)n3C)c1 | -0.4904 | -0.1115 | -0.0536
21 | CCOC(=O)c1cnc2ccc(CC)cc2c1O | -0.0424 | 0.0544 | -0.243
22 | CCOC(=O)c1c(NC(=O)c2ccccc2)sc2c(O)c(CN(CC)CC)ccc12 | 0.1716 | 0.0832 | -0.0008
23 | CCCCCn1c(=N)n(CC(O)COc2cccc(C)c2)c2ccccc21.Cl (stereo not drawn) | -0.7976 | -0.2633 | 0.0144

Row | SMILES | Relative Growth (Saccharomyces cerevisiae [1]) | Relative Growth (Saccharomyces cerevisiae [2]) | Relative Growth (Saccharomyces cerevisiae [3])
24 | COc1cccc(Nc2nc(NCCO)c3ccccc3n2)c1.Cl | -0.0151 | -0.0288 | 0.0163
25 | O=C(NC1CCN(Cc2ccccc2)CC1)c1cc(-c2ccncc2)nc2ccc(Cl)cc12 | -0.2602 | 0.1716 | -0.0217
26 | CCn1c(SCC(=O)Nc2cc(C(F)(F)F)ccc2Cl)nc2ccccc2c1=O | -0.159 | -0.0156 | -0.0109
27 | CCOc1ccc(-n2cc(-c3ccccc3)c3c(SCc4cc(C)ccc4C)ncnc32)cc1 | -0.2113 | -0.0883 | -0.0534
28 | CCOc1ccccc1CN1CCc2nc3cc(C(C)(C)C)nn3c(O)c2C1 | -0.4424 | -0.2912 | -0.6117
29 | Cc1ccnc(NC(c2cccc(OCc3ccccc3)c2)c2ccc3cccnc3c2O)c1 (stereo not drawn) | -0.3469 | 0.0892 | 0
30 | O=C(Nc1ccccc1O)c1ccc(Oc2cccc(C(=O)Nc3ccccc3O)c2)cc1 | -0.0198 | 0.0291 | -0.023
31 | COc1ccc(Nc2cc(C)nc(NCc3ccccc3)n2)cc1 | 0.0325 | 0.0189 | 0.0201
32 | Cc1sc(NC(=O)c2ccccc2)c(C(c2cccs2)N2CCN(c3ccccc3)CC2)c1C (stereo not drawn) | 0.0234 | -0.0211 | 0.0207
33 | CCCCCCC(O)(c1ccc(F)cc1)C(CN1CCOCC1)c1ccccc1.Cl (stereo not drawn) | -0.0435 | -0.1565 | -0.0019
34 | Oc1ccc(Br)cc1CN1CCN(Cc2ccc(Cl)cc2)CC1 | -0.4008 | -0.144 | 0.004
35 | CCOc1ccc2nc(C)cc(Nc3ccc(Br)cc3)c2c1 | 0.014 | -0.9176 | 0.0466
36 | Cc1ccc2c(C)nc(Nc3nc(C)cc(-c4ccccc4)n3)nc2c1 | -0.009 | -0.1458 | -0.9982
37 | CC1CCN(Cc2ccc(NC(=O)c3cc4ccc5cccnc5c4[nH]3)cc2)CC1 | -0.318 | 0.121 | -0.0895
38 | N=c1c2ccccc2nnn1-c1cccc(C(F)(F)F)c1 | -0.1336 | -0.1559 | -0.0528
39 | O=C(Nc1ccc(C23CC4CC(CC(c5ccccc5)(C4)C2)C3)cc1)c1cccs1 | -0.1427 | -0.46 | -1.0024
40 | O=[N+]([O-])c1ccc(C=NNc2nc3ccccc3[nH]2)cc1 | -1.0063 | -1.0011 | -0.6981
41 | COc1cc(OC)c(N(C)C(=O)c2cc3c(s2)-c2ccccc2S(=O)(=O)C3)cc1Cl | -0.2428 | -0.1342 | -0.2124
42 | CCOc1ccc(CCNC(=O)c2cccs2)cc1OCC | -0.3956 | -0.7048 | -1.0059
43 | Cc1ccc(Nc2nc(-c3ccccn3)cs2)cc1 | 0.1504 | 0.0898 | 0.0194
44 | Clc1ccc2c(N3CCCC3)ccnc2c1 | -0.0954 | 0.0172 | -0.0453
45 | CCCCCCOC(=O)C1=C(C)NC(=O)NC1c1ccccc1F (stereo not drawn) | -0.2346 | 0.2134 | -0.0098
46 | CCOC(=O)c1cnc2ccc(OC)cc2c1NCc1ccccc1 | -0.1303 | -0.0203 | -0.0244
